Experimental findings from patent US8809341B2, “2,4-pyrimidinediamine compounds and uses as anti-proliferative agents” (Rigel Pharmaceuticals, Inc., priority 2003, dated 2014) are described below.

Like-named read-outs stand apart in the source and are kept apart here.

Common to all, as to assay type: cell-based
The subject of one assay is A549 cells. Briefly: in vitro antiproliferation assay, A549 (lung). To be noted: A549 (lung) cells. The essentials: (§1)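 Standard in vitro antiproliferation assays on tumour cell lines, including A549 and H1299 (both lung); IC50 values determined.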
The next assay has as its system PC3. The assay can be described thus: in vitro antiproliferation assay, PC3 (prostate). The procedure:
(§2) The IC50 values of various compounds against a various different tumor cell lines were determined using standard in vitro antiproliferation assays. The tumor cell lines tested were as follows: A549 (lung); H1299 (lung), ACHN (kidney/p53 wt), CAKI (renal cell carcinoma), NCI-H460 (lung); HCT116 (colon/p53w0; HELA (cervix/p53 wt), HUH7 (liver/p53 wt), HUVEC (primary endothelial), LNCAP (prostate), HT-29 (colon); MCF-7 (breast); MCF-7 (breast/ER positive), MDA MB435S (breast); MDA MB231 (breast/ER negative), DU145 (prostate); BxPC-3 (pancreatic); SKOV-3 (ovarian); HepG2 (hepatic), NDHF primary normal human dermal fibroblast), SKMEL28 (breast/p53mut), SKMEL5 (breast/p53 wt), U20S (bone) and PC3 (prostate). […] A blank indicates the specified compound was not tested against the specified cell line.
(§3) Many of the compounds were tested against other cell lines. Their activity is reported in TABLE 15, below, where +”, “−”, “−/+” or “+/−” values are as described for TABLES 1-14. Where the cell line includes a value in a parenthetical, the value indicates the seeding density at which the assay was performed

The test system of the next assay is HCT116. The assay can be described thus: in vitro antiproliferation assay, HCT116 (colon). How it is done:
as §2, §3

The next assay has as its system H1299 cells. Briefly: in vitro antiproliferation assay, H1299 (lung). Conditions: H1299 (lung) cells. The essentials:
as §1

A further assay concerns HUVEC. Briefly: in vitro antiproliferation assay, HUVEC (primary endothelial). The procedure:
as §2, §3

Another assay deals with ACHN. Briefly: in vitro antiproliferation assay, ACHN (kidney/p53 wt). How it is done: as §2, §3
The next assay relates to SKMEL5. Briefly: in vitro antiproliferation assay, SKMEL5. How it is done:
as §2, §3

The next assay concerns SKMEL28. Briefly: in vitro antiproliferation assay, SKMEL28 (breast/p53mut). The procedure:
as §2, §3

Setting [1] is: HCT116 (colon), read-out: HCT116.

On to `CNC(=O)COc1cccc(Nc2ncc(F)c(Nc3ccc4c(c3)OC(F)(F)C(F)(F)O4)n2)c1` [compound 503], for which the IC50 in the assay on A549 cells (Table 5, in vitro antiproliferation) is under 20 µM; in the assay on PC3, over 20 µM; with HCT116 (setting [1]), at most 20 µM.

With `O=C(c1cc2cc(Nc3ncc(F)c(Nc4ccc5c(c4)OCCO5)n3)ccc2o1)N1CCCNCC1` [compound 644], the IC50 was at most 20 µM in the assay with A549 cells (Table 7, in vitro antiproliferation); over 20 µM in the assay on PC3; at most 20 µM in the assay with HCT116 (setting [1]); at most 20 µM in the assay on HCT116 (Table 7, in vitro antiproliferation, colon cells, read-out: HTC116).

As to `CNC(=O)COc1ccc(Nc2ncc(F)c(Nc3ccc(C(C)(C)C)cc3)n2)cc1` [compound 747], the IC50 in the assay with A549 cells (in vitro antiproliferation) was over 20 µM; in the assay on PC3 it was at most 20 µM.

Regarding `CNC(=O)COc1cccc(Nc2ncc(F)c(Nc3ccc(C(C)(C)C)cc3)n2)c1` [compound 748], the IC50 in the assay with A549 cells (in vitro antiproliferation) and in the assay with PC3 was over 20 µM each time.

For `CC(C)(C)c1ccc(Nc2nc(Nc3cccc(OCC(=O)O)c3)ncc2F)cc1` [compound 749], the IC50 in the assay on A549 cells (in vitro antiproliferation) and in the assay on PC3 was over 20 µM each time.

Turning to `CC(C)(C)c1ccc(Nc2nc(Nc3cccc(OCCO)c3)ncc2F)cc1` [compound 750], the results for the IC50 with A549 cells (in vitro antiproliferation) and in the assay on PC3 were over 20 µM and at most 20 µM, respectively.

`CNC(=O)COc1cccc(Nc2ncc(F)c(Nc3ccc(OC(C)C)cc3)n2)c1` [compound 751]: the IC50 in the assay with A549 cells (in vitro antiproliferation) was under 20 µM; in the assay on PC3, over 20 µM.

As to `CC(C)Oc1ccc(Nc2nc(Nc3cccc(OCC(=O)O)c3)ncc2F)cc1` [compound 752], the IC50 in the assay with A549 cells (in vitro antiproliferation) and in the assay with PC3 was over 20 µM throughout.

For `CNC(=O)COc1cccc(Nc2ncc(F)c(Nc3ccc(OC)c(OC)c3)n2)c1` [compound 753], the IC50 in the assay with A549 cells (in vitro antiproliferation) and in the assay on PC3 was over 20 µM each time.

Consider `COc1ccc(Nc2nc(Nc3cccc(OCC(=O)NCC(O)CO)c3)ncc2F)cc1OC` (centres unmarked) [compound 754], for which the IC50 with A549 cells (in vitro antiproliferation) and with PC3 was over 20 µM throughout.

For the compound `O=C(COc1cccc(Nc2ncc(F)c(Nc3cccc(O)c3)n2)c1)N1CCOCC1` [compound 762], the IC50 was over 20 µM in the assay with A549 cells (in vitro antiproliferation) and at most 20 µM with PC3.

With `CCOC(=O)COc1cccc(Nc2nc(Nc3cccc(O)c3)ncc2F)c1` [compound 763], the values for the IC50 with H1299 cells (in vitro antiproliferation), in the assay with A549 cells (in vitro antiproliferation) and with PC3 were at most 20 µM, over 20 µM and over 20 µM, respectively.

Take `CC(C)c1ccc(Nc2ncc(F)c(Nc3cccc(O)c3)n2)cc1` [compound 764]: the IC50 with A549 cells (in vitro antiproliferation) and with PC3 was over 20 µM throughout.

On to `COc1cc(Nc2ncc(F)c(Nc3cccc(O)c3)n2)cc(OC)c1` [compound 765], for which the IC50 in the assay with A549 cells (in vitro antiproliferation) and in the assay with PC3 was at most 20 µM throughout.

With `CCOC(=O)COc1cccc(Nc2ncc(F)c(Nc3cc(OC)cc(OC)c3)n2)c1` [compound 766], the IC50 in the assay with H1299 cells (in vitro antiproliferation) is at most 20 µM; with A549 cells (in vitro antiproliferation), over 20 µM; in the assay with PC3, over 20 µM.

On to `CNC(=O)COc1cccc(Nc2ncc(F)c(Nc3cc(OC)cc(OC)c3)n2)c1` [compound 767], for which the IC50 in the assay on A549 cells (in vitro antiproliferation) and in the assay with PC3 was over 20 µM throughout.

For the compound `CNC(=O)COc1cccc(Nc2ncc(F)c(Nc3ccc(C)c(OC)c3)n2)c1` [compound 790], the IC50 with A549 cells (in vitro antiproliferation) and with PC3 was at most 20 µM throughout.

Consider `Cc1cc(C)cc(Nc2ncc(F)c(Nc3ccc(Cl)c(Cl)c3)n2)c1` [compound 838], for which the IC50 in the assay with H1299 cells (in vitro antiproliferation) was over 20 µM; with A549 cells (in vitro antiproliferation), at most 20 µM; in the assay with HUVEC it was over 20 µM.

As to `COc1ccc(N(C)c2nc(Nc3ccc(-c4ncco4)cc3)ncc2F)cc1OC` [compound 869], the IC50 with H1299 cells (in vitro antiproliferation), in the assay on A549 cells (in vitro antiproliferation), in the assay on ACHN, in the assay on SKMEL5 and with SKMEL28 was at most 20 µM throughout.

Turning to `Fc1ccc(Nc2ncc(F)c(Nc3ccc(F)c(Cl)c3)n2)cc1Cl` [compound 938], the IC50 with A549 cells (antiproliferation) and in the assay on PC3 was over 20 µM in each case.

For `COc1cc(Nc2nc(Nc3cccc(OCCO)c3)ncc2F)cc(OC)c1` [compound 940], the IC50 with H1299 cells (antiproliferation), in the assay on A549 cells (antiproliferation), in the assay on PC3 and with HCT116 (setting [1]) was at most 20 µM throughout.

Consider `CCOC(=O)COc1cccc(Nc2ncc(F)c(Nc3cc(C)c(O)c(C)c3)n2)c1` [compound 947], for which the IC50 is at most 20 µM in the assay on H1299 cells (antiproliferation), over 20 µM with A549 cells (antiproliferation) and at most 20 µM in the assay with PC3.

As to `Cc1cc(Nc2nc(Nc3cccc(OCC(=O)N4CCOCC4)c3)ncc2F)cc(C)c1O` [compound 948], the IC50 was over 20 µM with A549 cells (antiproliferation) and at most 20 µM in the assay on PC3.

For `Cc1cc(Nc2nc(Nc3cccc(OCCN4CCOCC4)c3)ncc2F)cc(C)c1O` [compound 949], the IC50 with H1299 cells (antiproliferation), with A549 cells (antiproliferation), in the assay on PC3, with SKMEL28 and with HCT116 (setting [1]) was at most 20 µM in each case.

`Cc1cc(Nc2nc(Nc3cccc(OCC(=O)N4CCOCC4)c3)ncc2F)cc(Cl)c1O` [compound 954]: the IC50 in the assay on A549 cells (antiproliferation) and with PC3 was over 20 µM in each case.

For `CCOC(=O)COc1cccc(Nc2nc(Nc3cccc(C(C)(C)C)c3)ncc2F)c1` [compound 955], the IC50 with H1299 cells (antiproliferation), with A549 cells (antiproliferation) and in the assay on PC3 was over 20 µM throughout.

`CNC(=O)COc1cccc(Nc2nc(Nc3cccc(C(C)(C)C)c3)ncc2F)c1` [compound 956]: the IC50 in the assay with A549 cells (antiproliferation) and in the assay with PC3 was over 20 µM in each case.

With `Cc1cc(Nc2nc(Nc3cccc(OCCN4CCOCC4)c3)ncc2F)cc(Cl)c1O` [compound 957], the IC50 with A549 cells (antiproliferation) and in the assay with PC3 was at most 20 µM throughout.

On to `CCOC(=O)COc1cccc(Nc2ncc(F)c(Nc3cccc(C(C)(C)C)c3)n2)c1` [compound 958], for which the IC50 in the assay on H1299 cells (antiproliferation), in the assay with A549 cells (antiproliferation) and in the assay with PC3 was over 20 µM throughout.

`Cc1cc(Nc2ncc(F)c(Nc3cccc(C(C)(C)C)c3)n2)cc(Cl)c1O` [compound 959]: the IC50 with A549 cells (antiproliferation) and in the assay with PC3 was over 20 µM in each case.

For the compound `CNC(=O)COc1cccc(Nc2ncc(F)c(Nc3cccc(C(C)(C)C)c3)n2)c1` [compound 960], the IC50 in the assay with A549 cells (antiproliferation) and with PC3 was over 20 µM throughout.

In the case of `CC(C)(C)c1cccc(Nc2nc(Nc3cccc(OCC(=O)NCC(O)CO)c3)ncc2F)c1` (centres unmarked) [compound 961], the IC50 is under 20 µM with A549 cells (antiproliferation) and over 20 µM with PC3.

Regarding `CC(C)(C)c1cccc(Nc2nc(Nc3cccc(OCC(=O)O)c3)ncc2F)c1` [compound 962], the IC50 in the assay with H1299 cells (antiproliferation), in the assay on A549 cells (antiproliferation) and in the assay with PC3 was over 20 µM each time.

Take `O=C(O)COc1cccc(Nc2ncc(F)c(Nc3cccc(O)c3)n2)c1` [compound 978]: the IC50 in the assay on A549 cells (antiproliferation) and with PC3 was over 20 µM each time.

With `Cc1cc(Nc2nc(Nc3cccc(OCC(=O)O)c3)ncc2F)cc(C)c1O` [compound 979], the IC50 in the assay with H1299 cells (antiproliferation) is at most 20 µM; in the assay on A549 cells (antiproliferation), over 20 µM; with PC3 it was over 20 µM.

For `Cc1cc(Nc2nc(Nc3cccc(OCC(=O)N4CCNCC4)c3)ncc2F)cc(C)c1O` [compound 980], the IC50 in the assay on A549 cells (antiproliferation) is at most 20 µM; in the assay with PC3, over 20 µM.

Consider `COC(=O)COc1cccc(Nc2ncc(F)c(Nc3cc(C)c(O)c(C)c3)n2)c1` [compound 982], for which the IC50 in the assay with A549 cells (antiproliferation) and in the assay on PC3 was over 20 µM in each case.

With `Cc1cc(Nc2nc(Nc3cccc(OCC(=O)N4CCNCC4)c3)ncc2F)cc(Cl)c1O` [compound 983], the values for the IC50 in the assay with A549 cells (antiproliferation) and with PC3 were at most 20 µM and over 20 µM, respectively.

Regarding `Cc1cc(Nc2nc(Nc3cccc(OCCN4CCNCC4)c3)ncc2F)cc(Cl)c1O` [compound 984], the IC50 in the assay on A549 cells (antiproliferation), in the assay with PC3 and with HCT116 (setting [1]) was at most 20 µM each time.

Take `COC(=O)COc1cccc(Nc2ncc(F)c(Nc3cc(C)c(OC)c(C)c3)n2)c1` [compound 985]: the IC50 in the assay with A549 cells (antiproliferation) and in the assay on PC3 was over 20 µM throughout.

With `COc1c(C)cc(Nc2nc(Nc3cccc(OCC(=O)N4CCNCC4)c3)ncc2F)cc1C` [compound 986], the IC50 in the assay on A549 cells (antiproliferation) and in the assay with PC3 was over 20 µM throughout.

Regarding `COc1c(C)cc(Nc2nc(Nc3cccc(OCCN4CCNCC4)c3)ncc2F)cc1C` [compound 987], the results for the IC50 in the assay on A549 cells (antiproliferation) and in the assay on PC3 were over 20 µM and at most 20 µM, respectively.

In the case of `CNC(=O)COc1cccc(Nc2ncc(F)c(Nc3ccc(Cl)c(Cl)c3)n2)c1` [compound 1006], the IC50 in the assay with H1299 cells (antiproliferation), with A549 cells (antiproliferation) and in the assay with HUVEC was at most 20 µM in each case.

Turning to `Cc1cc(C)cc(Nc2ncc(F)c(N(C)c3ccc(Cl)c(Cl)c3)n2)c1` [compound 1007], the IC50 in the assay with H1299 cells (antiproliferation), with A549 cells (antiproliferation) and in the assay on HUVEC was over 20 µM in each case.

Consider `COc1cc(Nc2ncc(F)c(N(C)c3ccc(Cl)c(Cl)c3)n2)cc(OC)c1` [compound 1009], for which the IC50 is over 20 µM in the assay with H1299 cells (antiproliferation), over 20 µM in the assay with A549 cells (antiproliferation) and at most 20 µM in the assay on HUVEC.
